According to ChEMBL document CHEMBL1143803, “Syntheses, characterization and in vitro antiamoebic activity of new Pd(II) complexes with 1-N-substituted thiocarbamoyl-3,5-diphenyl-2-pyrazoline derivatives” (Eur J Med Chem, 2007):

Test system: Entamoeba histolytica
Test: Antiamoebic activity against Entamoeba histolytica HM-1:IMSS after 72 hrs
Format: functional, organism-based

Row | Compound | IC50
1 | Cc1cccc(NC(=S)N2N=C(c3ccccc3)CC2c2ccccc2)c1 (stereo not drawn) | 10700 nM
2 | S=C(N1CCC(Cc2ccccc2)CC1)N1N=C(c2ccccc2)CC1c1ccccc1 (stereo not drawn) | 1600 nM
3 | S=C(N1CCCc2ccccc21)N1N=C(c2ccccc2)CC1c1ccccc1 (stereo not drawn) | 450 nM
4 | Cc1ccccc1NC(=S)N1N=C(c2ccccc2)CC1c1ccccc1 (stereo not drawn) | 4790 nM
5 | Cc1ccc(NC(=S)N2N=C(c3ccccc3)CC2c2ccccc2)cc1 (stereo not drawn) | 380 nM
6 | S=C(N1CCN(c2ccccc2)CC1)N1N=C(c2ccccc2)CC1c1ccccc1 (stereo not drawn) | 1800 nM
7 | S=C(NCc1ccccc1Cl)N1N=C(c2ccccc2)CC1c1ccccc1 (stereo not drawn) | 11000 nM
8 | CN(Cc1ccccc1)C(=S)N1N=C(c2ccccc2)CC1c1ccccc1 (stereo not drawn) | 2800 nM
